Measured values published in patent US20240307419A1, “CONFORMATIONALLY-CONSTRAINED INHIBITORS OF 3C OR 3C-LIKE PROTEASES” (priority 2021, published 2024).

Each compound was assayed on CRFK cells (assay: not given). Details: cat.
For CC(C)C[C@H](NC(=O)OC1CC2(C1)CN(S(C)(=O)=O)C2)C(=O)N[C@H](C=O)C[C@H]1CCNC1=O [Compound 4b, 2-(Methylsulfonyl)-2-azaspiro[3.3]heptan-6-yl ((S)-4-methyl-1-oxo-1-(((S)-1-oxo-3-((R)-2-oxopyrrolidin-3-yl)propan-2-yl)amino)pentan-2-yl)carbamate], the CC50 was > 100 µM. In the case of CC(C)C[C@H](NC(=O)OC1CC2(C1)CN(S(C)(=O)=O)C2)C(=O)N[C@@H](C[C@H]1CCNC1=O)C(O)S(=O)(=O)O (stereo partly drawn) [Compound 4c, Sodium (2S)-1-hydroxy-2-((S)-4-methyl-2-((((2-(methylsulfonyl)-2-azaspiro[3.3]heptan-6-yl)oxy)carbonyl)amino)pentanamido)-3-((R)-2-oxopyrrolidin-3-yl)propane-1-sulfonate], the CC50 is reported as > 100 µM. For CC(C)C[C@H](NC(=O)OC1CC2(CCN(C(=O)OC(C)(C)C)C2)C1)C(=O)N[C@H](C=O)C[C@H]1CCNC1=O (stereo partly drawn) [Compound 5b, Tert-butyl 2-((((S)-4-methyl-1-oxo-1-(((S)-1-oxo-3-((R)-2-oxopyrrolidin-3-yl)propan-2-yl)amino)pentan-2-yl)carbamoyl)oxy)-6-azaspiro[3.4]octane-6-carboxylate], the CC50 was > 100 µM. For CC(C)C[C@H](NC(=O)OC1CC2(CCN(C(=O)OC(C)(C)C)C2)C1)C(=O)N[C@@H](C[C@H]1CCNC1=O)C(O)S(=O)(=O)O (stereo partly drawn) [Compound 5c, Sodium (2S)-2-((S)-2-((((6-(tert-butoxycarbonyl)-6-azaspiro[3.4]octan-2-yl)oxy)carbonyl)amino)-4-methylpentanamido)-1-hydroxy-3-((R)-2-oxopyrrolidin-3-yl)propane-1-sulfonate], the CC50 was > 100 µM. In the case of CC(C)C[C@H](NC(=O)OC1CCC2(C1)CN(C(=O)OC(C)(C)C)C2)C(=O)N[C@H](C=O)C[C@H]1CCNC1=O (stereo partly drawn) [Compound 6b, Tert-butyl 6-((((S)-4-methyl-1-oxo-1-(((S)-1-oxo-3-((R)-2-oxopyrrolidin-3-yl)propan-2-yl)amino)pentan-2-yl)carbamoyl)oxy)-2-azaspiro[3.4]octane-2-carboxylate], the CC50 is reported as > 100 µM. CC(C)C[C@H](NC(=O)OC1CCC2(C1)CN(C(=O)OC(C)(C)C)C2)C(=O)N[C@@H](C[C@H]1CCNC1=O)C(O)S(=O)(=O)O (stereo partly drawn) [Compound 6c, Sodium (2S)-2-((2S)-2-((((2-(tert-butoxycarbonyl)-2-azaspiro[3.4]octan-6-yl)oxy)carbonyl)amino)-4-methylpentanamido)-1-hydroxy-3-((R)-2-oxopyrrolidin-3-yl)propane-1-sulfonate] was tested, and the CC50 was > 100 µM. With CC(C)C[C@H](NC(=O)OC1CC2(CCN(C(=O)C(C)C)CC2)C1)C(=O)N[C@H](C=O)C[C@H]1CCNC1=O [Compound 8b, 7-Isobutyryl-7-azaspiro[3.5]nonan-2-yl ((S)-4-methyl-1-oxo-1-(((S)-1-oxo-3-((R)-2-oxopyrrolidin-3-yl)propan-2-yl)amino)pentan-2-yl)carbamate] the CC50 was > 100 µM. CC(C)C[C@H](NC(=O)OC1CC2(CCN(C(=O)C(C)C)CC2)C1)C(=O)N[C@@H](C[C@H]1CCNC1=O)C(O)S(=O)(=O)O (stereo partly drawn) [Compound 8c, Sodium (2S)-1-hydroxy-2-((S)-2-((((7-isobutyryl-7-azaspiro[3.5]nonan-2-yl)oxy)carbonyl)amino)-4-methylpentanamido)-3-((R)-2-oxopyrrolidin-3-yl)propane-1-sulfonate] was tested, and the CC50 was > 100 µM. For CC(C)C[C@H](NC(=O)OC1CC2(CCN(C#N)CC2)C1)C(=O)N[C@H](C=O)C[C@H]1CCNC1=O [Compound 11b, 7-Cyano-7-azaspiro[3.5]nonan-2-yl ((S)-4-methyl-1-oxo-1-(((S)-1-oxo-3-((R)-2-oxopyrrolidin-3-yl)propan-2-yl)amino)pentan-2-yl)carbamate], the CC50 was > 100 µM. With CC(C)C[C@H](NC(=O)OC1CC2(CCN(C#N)CC2)C1)C(=O)N[C@@H](C[C@H]1CCNC1=O)C(O)S(=O)(=O)O (stereo partly drawn) [Compound 11c, Sodium (2S)-2-((S)-2-((((7-cyano-7-azaspiro[3.5]nonan-2-yl)oxy)carbonyl)amino)-4-methylpentanamido)-1-hydroxy-3-((R)-2-oxopyrrolidin-3-yl)propane-1-sulfonate] the CC50 was > 100 µM. With CC(C)C[C@H](NC(=O)OC1CN(C(=O)OC(C)(C)C)C1)C(=O)N[C@H](C=O)C[C@H]1CCNC1=O [Compound 12b, Tert-butyl 3-((((S)-4-methyl-1-oxo-1-(((S)-1-oxo-3-((R)-2-oxopyrrolidin-3-yl)propan-2-yl)amino)pentan-2-yl)carbamoyl)oxy)azetidine-1-carboxylate] the CC50 was > 100 µM. CC(C)C[C@H](NC(=O)OC1CN(C(=O)OC(C)(C)C)C1)C(=O)N[C@@H](C[C@H]1CCNC1=O)C(O)S(=O)(=O)O (stereo partly drawn) [Compound 12c, Sodium (2S)-2-((S)-2-((((1-(tert-butoxycarbonyl)azetidin-3-yl)oxy)carbonyl)amino)-4-methylpentanamido)-1-hydroxy-3-((R)-2-oxopyrrolidin-3-yl)propane-1-sulfonate] was tested, and the CC50 was > 100 µM. In the case of CC(C)C[C@H](NC(=O)OC1(C)CN(C(=O)OC(C)(C)C)C1)C(=O)N[C@H](C=O)C[C@H]1CCNC1=O [Compound 13b, Tert-butyl 3-methyl-3-((((S)-4-methyl-1-oxo-1-(((S)-1-oxo-3-((R)-2-oxopyrrolidin-3-yl)propan-2-yl)amino)pentan-2-yl)carbamoyl)oxy)azetidine-1-carboxylate], the CC50 is reported as > 100 µM. CC(C)C[C@H](NC(=O)OC1(C)CN(C(=O)OC(C)(C)C)C1)C(=O)N[C@@H](C[C@H]1CCNC1=O)C(O)S(=O)(=O)O (stereo partly drawn) [Compound 13c, Sodium (2S)-2-((S)-2-((((1-(tert-butoxycarbonyl)-3-methylazetidin-3-yl)oxy)carbonyl)amino)-4-methylpentanamido)-1-hydroxy-3-((R)-2-oxopyrrolidin-3-yl)propane-1-sulfonate] was tested, and the CC50 was > 100 µM. CC(C)C[C@H](NC(=O)OCC1CN(C(=O)Cc2ccccc2)C1)C(=O)N[C@H](C=O)C[C@H]1CCNC1=O [Compound 15b, (1-(2-Phenylacetyl)azetidin-3-yl)methyl ((S)-4-methyl-1-oxo-1-(((S)-1-oxo-3-((R)-2-oxopyrrolidin-3-yl)propan-2-yl)amino)pentan-2-yl)carbamate] was tested, and the CC50 was > 100 µM. For CC(C)C[C@H](NC(=O)OCC1CN(C(=O)Cc2ccccc2)C1)C(=O)N[C@@H](C[C@H]1CCNC1=O)C(O)S(=O)(=O)O (stereo partly drawn) [Compound 15c, Sodium (2S)-1-hydroxy-2-((S)-4-methyl-2-((((1-(2-phenylacetyl)azetidin-3-yl)methoxy)carbonyl)amino)pentanamido)-3-((R)-2-oxopyrrolidin-3-yl)propane-1-sulfonate], the CC50 was > 100 µM. With CC(C)C[C@H](NC(=O)OCC1CN(C(=O)C2CC3CCC2C3)C1)C(=O)N[C@H](C=O)C[C@H]1CCNC1=O (stereo partly drawn) [Compound 16b, (1-(Bicyclo[2.2.1]heptane-2-carbonyl)azetidin-3-yl)methyl ((S)-4-methyl-1-oxo-1-(((S)-1-oxo-3-((R)-2-oxopyrrolidin-3-yl)propan-2-yl)amino)pentan-2-yl)carbamate] the CC50 was > 100 µM.

What follows are compounds tested against SARS-CoV-2 3CLpro (Severe acute respiratory syndrome coronavirus 2 (2019-nCoV) (SARS-CoV-2), UniProt P0DTD1) (assay: biochemical). Details: read-out: IC50.
Type: biochemical
With CCCCCC12CCC(COC(=O)N[C@@H](CC(C)C)C(=O)N[C@H](C=O)C[C@@H]3CCNC3=O)(CC1)CC2 [Compound 2i, (4-Pentylbicyclo[2.2.2]octan-1-yl)methyl ((S)-4-methyl-1-oxo-1-(((S)-1-oxo-3-((S)-2-oxopyrrolidin-3-yl)propan-2-yl)amino)pentan-2-yl)carbamate] the IC50 was 0.27 ± 0.02 µM. In the case of CC(C)C[C@H](NC(=O)OCC12CC3CC(CC(C3)C1)C2)C(=O)N[C@H](C=O)C[C@H]1CCNC1=O [Compound 2l, ((3S,5S,7S)-Adamantan-1-yl)methyl-d2 ((S)-4-methyl-1-oxo-1-(((S)-1-oxo-3-((S)-2-oxopyrrolidin-3-yl)propan-2-yl)amino)pentan-2-yl)carbamate], the IC50 is reported as 0.29 ± 0.04 µM. Work on CC(C)C[C@H](NC(=O)OC[C@@]12C[C@@H]3C[C@@H](C[C@@](O)(C3)C1)C2)C(=O)N[C@H](C=O)C[C@@H]1CCNC1=O [Compound 2o, ((1r,3R,5R,7S)-3-Hydroxyadamantan-1-yl)methyl-d2 ((S)-4-methyl-1-oxo-1-(((S)-1-oxo-3-((S)-2-oxopyrrolidin-3-yl)propan-2-yl)amino)pentan-2-yl)carbamate] yielded an IC50 of 0.74 ± 0.26 µM. CCCCCC12CCC(COC(=O)N[C@@H](CC(C)C)C(=O)N[C@@H](C[C@@H]3CCNC3=O)C(O)S(=O)(=O)O)(CC1)CC2 (stereo partly drawn) [Compound 3i, Sodium (2S)-1-hydroxy-2-((S)-4-methyl-2-((((4-pentylbicyclo[2.2.2]octan-1-yl)methoxy)carbonyl)amino)pentanamido)-3-((S)-2-oxopyrrolidin-3-yl)propane-1-sulfonate] showed an IC50 of 0.3 ± 0.02 µM. For [2H]C([2H])(OC(=O)N[C@@H](CC(C)C)C(=O)N[C@@H](C[C@@H]1CCNC1=O)C(O)S(=O)(=O)[O-])C12CCC(CCCCC)(CC1)CC2.[Na+] (stereo partly drawn) [Compound 3j, Sodium (2S)-1-hydroxy-2-((S)-4-methyl-2-((((4-pentylbicyclo[2.2.2]octan-1-yl)methoxy-d2)carbonyl)amino)pentanamido)-3-((S)-2-oxopyrrolidin-3-yl)propane-1-sulfonate], the IC50 was 0.31 ± 0.06 µM. CC(C)C[C@H](NC(=O)OCC12CC3CC(CC(C3)C1)C2)C(=O)N[C@@H](C[C@H]1CCNC1=O)C(O)S(=O)(=O)O (stereo partly drawn) [Compound 3l, Sodium (2S)-2-((S)-2-(((((3S,5S,7S)-adamantan-1-yl)methoxy-d2)carbonyl)amino)-4-methylpentanamido)-1-hydroxy-3-((S)-2-oxopyrrolidin-3-yl)propane-1-sulfonate] was tested, and the IC50 was 0.27 ± 0.04 µM. Compound CC(C)C[C@H](NC(=O)OCC12CC3CC(CC(O)(C3)C1)C2)C(=O)N[C@@H](C[C@H]1CCNC1=O)C(O)S(=O)(=O)O (stereo partly drawn) [Compound 3o, Sodium (2S)-1-hydroxy-2-((S)-2-(((((1r,3R,5R,7S)-3-hydroxyadamantan-1-yl)methoxy-d2)carbonyl)amino)-4-methylpentanamido)-3-((S)-2-oxopyrrolidin-3-yl)propane-1-sulfonate] has an IC50 of 0.78 ± 0.18 µM.
